Assays:
[1] = molecular target: T1, Serine/threonine-protein kinase PLK4 (Homo sapiens, UniProt O00444); test: Inhibition of PLK4 (unknown origin) incubated for 1 hr in presence of kinase tracer 236 by FRET assay
T1 sequence (O00444 whole entry): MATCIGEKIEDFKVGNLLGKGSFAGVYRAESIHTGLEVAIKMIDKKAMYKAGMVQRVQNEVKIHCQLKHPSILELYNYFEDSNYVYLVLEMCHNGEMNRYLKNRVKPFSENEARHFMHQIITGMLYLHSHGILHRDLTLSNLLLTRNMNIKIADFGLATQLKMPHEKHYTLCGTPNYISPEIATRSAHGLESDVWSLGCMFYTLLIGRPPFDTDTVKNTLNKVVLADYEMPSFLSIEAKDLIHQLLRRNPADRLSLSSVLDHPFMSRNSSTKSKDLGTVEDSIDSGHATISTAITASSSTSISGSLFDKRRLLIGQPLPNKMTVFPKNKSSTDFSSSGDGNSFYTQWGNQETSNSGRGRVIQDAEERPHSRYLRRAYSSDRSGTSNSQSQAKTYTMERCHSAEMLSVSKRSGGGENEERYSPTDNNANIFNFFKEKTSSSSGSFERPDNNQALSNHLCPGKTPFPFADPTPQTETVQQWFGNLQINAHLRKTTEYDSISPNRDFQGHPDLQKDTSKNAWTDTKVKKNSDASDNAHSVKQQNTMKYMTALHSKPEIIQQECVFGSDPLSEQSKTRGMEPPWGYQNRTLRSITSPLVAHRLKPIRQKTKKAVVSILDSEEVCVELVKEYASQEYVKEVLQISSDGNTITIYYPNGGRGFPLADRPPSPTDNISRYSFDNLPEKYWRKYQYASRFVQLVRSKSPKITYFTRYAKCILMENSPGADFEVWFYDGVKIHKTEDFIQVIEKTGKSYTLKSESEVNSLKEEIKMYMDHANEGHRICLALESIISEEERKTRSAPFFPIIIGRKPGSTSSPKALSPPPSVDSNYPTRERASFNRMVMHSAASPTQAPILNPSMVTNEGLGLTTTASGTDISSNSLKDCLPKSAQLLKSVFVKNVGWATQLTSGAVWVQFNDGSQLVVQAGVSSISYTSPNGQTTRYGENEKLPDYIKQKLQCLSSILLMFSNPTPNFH

[2] = molecular target: T2, Protein cereblon/Serine/threonine-protein kinase PLK4 (Homo sapiens, UniProt O00444+Q96SW2); test: Protac activity at CRBN/PLK4 in human MCF7 cells at 1 uM incubated for 48 hrs by Western blot analysis; format: cell-based
[3] = molecular target: T2, Protein cereblon/Serine/threonine-protein kinase PLK4; test: Protac activity at CRBN/PLK4 in human MCF7 cells at 0.1 uM incubated for 48 hrs by Western blot analysis; format: cell-based
[4] = molecular target: T2, Protein cereblon/Serine/threonine-protein kinase PLK4; test: Protac activity at CRBN/PLK4 in human MCF7 cells at 10 uM incubated for 48 hrs by Western blot analysis; format: cell-based
[5] = tested on: MCF7; test: Antiproliferative activity against human MCF7 cells incubated for 5 days by CCK-8 assay; conditions: MCF7, 120 h
[6] = Stability in human plasma assessed as half life at 100 uM after 120 mins by LC-MS/MS analysis; format: ADME, cell-free
[7] = tested on: CYP2D6; test: Inhibition of CYP2D6 in human liver microsomes at 10 uM using quinidine as substrate preincubated for 10 mins followed by NADPH regenerating system addition and measured after 15 mins by LC-MS/MS analysis relative to control; format: ADME, Microsome; conditions: time 25 min

T2 sequence (Q96SW2 whole entry, looked up, one chain of several): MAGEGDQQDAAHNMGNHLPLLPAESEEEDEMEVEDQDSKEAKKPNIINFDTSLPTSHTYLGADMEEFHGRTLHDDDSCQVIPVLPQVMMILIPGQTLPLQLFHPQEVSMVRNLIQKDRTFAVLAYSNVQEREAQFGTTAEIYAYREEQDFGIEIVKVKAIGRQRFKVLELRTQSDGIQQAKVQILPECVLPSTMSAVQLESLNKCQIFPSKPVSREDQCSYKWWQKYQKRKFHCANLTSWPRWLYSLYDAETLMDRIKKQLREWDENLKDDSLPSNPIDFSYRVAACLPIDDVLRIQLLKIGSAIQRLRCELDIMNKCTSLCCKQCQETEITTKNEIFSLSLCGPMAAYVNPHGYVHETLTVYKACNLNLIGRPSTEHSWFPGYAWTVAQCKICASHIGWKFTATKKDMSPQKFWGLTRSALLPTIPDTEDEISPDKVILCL

SMILES	IC50 [1] [nM]	Activity [2] [%]	Activity [3] [%]	Activity [4] [%]	IC50 [5] [nM]	half-life at 100 µM [6] [min]	inhibition at 0.25 h, 10 µM [7] [%]
Cc1cc(Nc2nc(NCc3ccc(F)cc3F)nc3c2cnn3C2CCN(C(=O)C3CC4(C3)CN(c3ccc5c(c3)C(=O)N(C3CCC(=O)NC3=O)C5=O)C4)CC2)n[nH]1 (stereo not drawn)	75.2	2.39	0.28	4.01	–	–	–
Cc1cc(Nc2nc(NCc3ccc(F)cc3F)nc3c2cnn3C2CCN(C(=O)CCCCCCCCCCCCCCCOc3ccc4c(c3)C(=O)N(C3CCC(=O)NC3=O)C4=O)CC2)n[nH]1 (stereo not drawn)	121	37.8	24.1	43.5	–	–	–
Cc1cc(Nc2nc(NCc3ccc(F)cc3F)nc3c2cnn3C2CCN(C(=O)CC3CCN(c4ccc5c(c4)C(=O)N(C4CCC(=O)NC4=O)C5=O)CC3)CC2)n[nH]1 (stereo not drawn)	19.1	51	46.2	–	2460	–	–
CC(C)[N+](C)(CCOC(=O)C1c2ccccc2Oc2ccccc21)C(C)C.[Br-] [PROPANTHELINE BROMIDE]	–	–	–	–	–	19.8	–
Cc1cc(Nc2nc(NCc3ccc(F)cc3F)nc3c2cnn3C2CCN(C(=O)c3ccc(C4CCN(c5ccc6c(c5)C(=O)N(C5CCC(=O)NC5=O)C6=O)CC4)cc3)CC2)n[nH]1 (stereo not drawn)	82.7	61.4	50.5	69.9	2500	–	–
Cc1cc(Nc2nc(NCc3ccc(F)cc3F)nc3c2cnn3C2CCNCC2)n[nH]1	–	–	–	–	650	–	–
Cc1cc(Nc2nc(NCc3ccc(F)cc3F)nc3c2cnn3C2CCN(C(=O)CCCCCCCCCCCCCOc3ccc4c(c3)C(=O)N(C3CCC(=O)NC3=O)C4=O)CC2)n[nH]1 (stereo not drawn)	154	22.8	11.6	35.9	–	–	–
Cc1cc(Nc2nc(NCc3ccc(F)cc3F)nc3c2cnn3C2CCN(Cc3ccc(C4CCN(c5ccc6c(c5)C(=O)N(C5CCC(=O)NC5=O)C6=O)CC4)cc3)CC2)n[nH]1 (stereo not drawn)	106	3.11	1.05	7.32	–	–	–
Cc1cc(Nc2nc(NCc3ccc(F)cc3F)nc3c2cnn3C2CCN(C(=O)CCCCCCCCCCCCCCCCCOc3ccc4c(c3)C(=O)N(C3CCC(=O)NC3=O)C4=O)CC2)n[nH]1 (stereo not drawn)	19.6	46.8	20.2	58.1	–	–	–
C=C[C@H]1C[N@@]2CC[C@H]1C[C@@H]2[C@@H](O)c1ccnc2ccc(OC)cc12 [QUINIDINE]	–	–	–	–	–	–	95.9
Cc1cc(Nc2nc(NCc3ccc(F)cc3F)nc3c2cnn3C2CCN(C(=O)CC3CC4(C3)CN(c3ccc5c(c3)C(=O)N(C3CCC(=O)NC3=O)C5=O)C4)CC2)n[nH]1 (stereo not drawn)	61.1	5.49	1.84	24.3	–	–	–
Cc1cc(Nc2nc(NCc3ccc(F)cc3F)nc3c2cnn3C2CCN(C(=O)C3CN(c4ccc5c(c4)C(=O)N(C4CCC(=O)NC4=O)C5=O)C3)CC2)n[nH]1 (stereo not drawn)	18.9	52.2	46.3	73.5	250	–	–
Cc1cc(Nc2nc(NCc3ccc(F)cc3F)nc3c2cnn3C2CCN(C(=O)Cc3ccc(N4CCN(c5ccc6c(c5)C(=O)N(C5CCC(=O)NC5=O)C6=O)CC4)cc3)CC2)n[nH]1 (stereo not drawn)	216	57.6	40.1	–	6980	–	–
Cc1cc(Nc2nc(NCc3ccc(F)cc3F)nc3c2cnn3C2CCN(C(=O)CCOCCOCCCOc3ccc4c(c3)C(=O)N(C3CCC(=O)NC3=O)C4=O)CC2)n[nH]1 (stereo not drawn)	37.9	46.4	29.1	52.2	–	–	–
Cc1cc(Nc2nc(NCc3ccc(F)cc3F)nc3c2cnn3C2CCN(C(=O)CCCCCCCCCCCOc3ccc4c(c3)C(=O)N(C3CCC(=O)NC3=O)C4=O)CC2)n[nH]1 (stereo not drawn)	531	13.2	4.29	21.7	–	–	–
Cc1cc(Nc2nc(NCc3ccc(F)cc3F)nc3c2cnn3C2CCN(C(=O)CCCCCCCCCOc3ccc4c(c3)C(=O)N(C3CCC(=O)NC3=O)C4=O)CC2)n[nH]1 (stereo not drawn)	1080	103	2.81	23.6	–	–	–
Cc1cc(Nc2nc(NCc3ccc(F)cc3F)nc3c2cnn3C2CCN(CC3CC4(C3)CN(c3ccc5c(c3)C(=O)N(C3CCC(=O)NC3=O)C5=O)C4)CC2)n[nH]1 (stereo not drawn)	42.3	6.07	4.12	–	–	–	–
Cc1cc(Nc2nc(NCc3ccc(F)cc3F)nc3c2cnn3C2CCN(C(=O)CCCCCCCOc3ccc4c(c3)C(=O)N(C3CCC(=O)NC3=O)C4=O)CC2)n[nH]1 (stereo not drawn)	42.2	38.9	30.2	50.3	–	–	–

Further lines, results first:

IC50 [1] [nM]	Activity [2] [%]	Activity [3] [%]	Activity [4] [%]	IC50 [5] [nM]	half-life at 100 µM [6] [min]	inhibition at 0.25 h, 10 µM [7] [%]	SMILES
13.6	8.91	3.54	26.1	–	–	–	Cc1cc(Nc2nc(NCc3ccc(F)cc3F)nc3c2cnn3C2CCN(CC3CCN(c4ccc5c(c4)C(=O)N(C4CCC(=O)NC4=O)C5=O)C3)CC2)n[nH]1 (stereo not drawn)
9.4	30.3	24.6	38.5	–	–	–	Cc1cc(Nc2nc(NCc3ccc(F)cc3F)nc3c2cnn3C2CCN(C(=O)COCCOCCOc3ccc4c(c3)C(=O)N(C3CCC(=O)NC3=O)C4=O)CC2)n[nH]1 (stereo not drawn)
9.1	55.3	31.7	68.9	220	–	–	Cc1cc(Nc2nc(NCc3ccc(F)cc3F)nc3c2cnn3C2CCN(C(=O)CCCCCCOc3ccc4c(c3)C(=O)N(C3CCC(=O)NC3=O)C4=O)CC2)n[nH]1 (stereo not drawn)
5.6	28.5	25.3	43.9	–	–	–	Cc1cc(Nc2nc(NCc3ccc(F)cc3F)nc3c2cnn3C2CCN(C(=O)COc3ccc4c(c3)C(=O)N(C3CCC(=O)NC3=O)C4=O)CC2)n[nH]1 (stereo not drawn)
5.5	46.7	31.3	57.7	–	–	–	Cc1cc(Nc2nc(NCc3ccc(F)cc3F)nc3c2cnn3C2CCN(C(=O)CCCCCOc3ccc4c(c3)C(=O)N(C3CCC(=O)NC3=O)C4=O)CC2)n[nH]1 (stereo not drawn)
5.5	56.1	36.7	66.8	260	–	–	Cc1cc(Nc2nc(NCc3ccc(F)cc3F)nc3c2cnn3C2CCN(C(=O)C3CCN(c4ccc5c(c4)C(=O)N(C4CCC(=O)NC4=O)C5=O)C3)CC2)n[nH]1 (stereo not drawn)
3.6	13.4	5.68	19.7	–	–	–	Cc1cc(Nc2nc(NCc3ccc(F)cc3F)nc3c2cnn3C2CCN(C(=O)CCOCCOc3ccc4c(c3)C(=O)N(C3CCC(=O)NC3=O)C4=O)CC2)n[nH]1 (stereo not drawn)
2.6	56.8	44.1	63.6	260	–	–	Cc1cc(Nc2nc(NCc3ccc(F)cc3F)nc3c2cnn3C2CCN(C(=O)CCCCOc3ccc4c(c3)C(=O)N(C3CCC(=O)NC3=O)C4=O)CC2)n[nH]1 (stereo not drawn)
3.1	8.64	2.16	19.2	–	–	–	Cc1cc(Nc2nc(NCc3ccc(F)cc3F)nc3c2cnn3C2CCN(CC3CCN(c4ccc5c(c4)C(=O)N(C4CCC(=O)NC4=O)C5=O)CC3)CC2)n[nH]1 (stereo not drawn)
8.1	48.9	39.2	–	–	–	–	Cc1cc(Nc2nc(NCc3ccc(F)cc3F)nc3c2cnn3C2CCN(C(=O)CC3CCN(c4ccc5c(c4)C(=O)N(C4CCC(=O)NC4=O)C5=O)C3)CC2)n[nH]1 (stereo not drawn)
1.9	5.34	2.13	28.3	–	–	–	Cc1cc(Nc2nc(NCc3ccc(F)cc3F)nc3c2cnn3C2CCN(C(=O)COCCOc3ccc4c(c3)C(=O)N(C3CCC(=O)NC3=O)C4=O)CC2)n[nH]1 (stereo not drawn)
12.9	70.4	47.7	–	510	–	–	Cc1cc(Nc2nc(NCc3ccc(F)cc3F)nc3c2cnn3C2CCN(C(=O)CC3CN(c4ccc5c(c4)C(=O)N(C4CCC(=O)NC4=O)C5=O)C3)CC2)n[nH]1 (stereo not drawn)
10.1	31.1	2.33	42.2	–	–	–	Cc1cc(Nc2nc(NCc3ccc(F)cc3F)nc3c2cnn3C2CCN(CC3CN(c4ccc5c(c4)C(=O)N(C4CCC(=O)NC4=O)C5=O)C3)CC2)n[nH]1 (stereo not drawn)

Reference: ChEMBL document CHEMBL5338818, “Discovery of the First Potent, Selective, and In Vivo Efficacious Polo-like Kinase 4 Proteolysis Targeting Chimera Degrader for the Treatment of TRIM37-Amplified Breast Cancer” (J Med Chem, 2023)
